In patent US20090320718A1, “FLUOROSURFACTANTS” (priority 2006, published 2009):
One block for each compound: values may come before it.

Experiment: Determination of the surface tension (Kruss tensiometer K12, ring method)
Type: physicochemical
Conditions: for surface tension: measurement solutions in deionised water, 20° C.
Description: • Instrument: Kruss tensiometer (model K12) • Temperature of the measurement solutions: 20° C. • Measurement module employed: ring • Concentration of the measurement solutions: about 0.5 to 3.0 g/l in deionised water
Further details on the method are given in the European Commission publication: Classification, Packaging and Labelling of Dangerous Substances in the European Union, Part II-Test Methods, Annex V-Methods for Determining the Physical-Chemical Properties, the Toxicity and the Ecotoxicity, Part A, Surface Tension (A.5), January 1997, pages 51-57, and also the OECD Guideline for the Testing of Chemicals, Section 1, Physical-Chemical Properties, method 115, pages 1-7, adopted: 27.07.95, the contents of which in this respect are expressly part of the disclosure content of the present application.

- surface tension (concentration: 99.8 mg/100 ml): 31.29 mN/m
Compound: 11-(S-trifluoromethyl)mercaptoundecane-1-sulfonic acid sodium salt [CF3—S—(CH2)11—SO3Na]

- Surface tension of an aqueous solution of the sodium salt (at 0.016 mol/l, sodium salt (2 eq of NaOH/eq of carboxylic acid)): 33.4 mN/m
Compound: O=C(O)CCCCCCCCCCSCCC(F)(F)F [Example 5c, 11-(3,3,3-Trifluoropropylsulfanyl)undecanoic acid]

Compound: O=S(=O)([O-])CCCCCCCCCCCSCCC(F)(F)F.[Na+] [CF3—CH2—CH2—S—(CH2)11—SO3Na]
- surface tension (Concentration: 100.7 mg/100 ml): 38.55 mN/m
